According to PMC12441861, “Next-Generation Lipid Prodrugs Orally Deliver Tenofovir via Enhanced Chylomicron Incorporation” (ACS Pharmacology & Translational Science, 2025):

Key:
HIV = conditions: HEK293T cells; ref previous study (Pribut et al. 2021); read-out: IC50 (antiviral activity, previous study); cited from earlier work
[1] = Mouse oral PK and tissue distribution, fasted state; format: in vivo; conditions: for Tmax: male, C57BL/6, mouse, lung, po, 10 mg/kg, tissue not stated; for lung AUC, fasted: overnight fast, final time point 24 h
Method: It is well established that oral absorption and subsequent tissue distribution of lipophilic drugs can be affected by an animal’s fed state. − Food intake serves as a stimulus for CM production in enterocytes, and therefore, variable fed states contribute to differences in prodrug absorption into the lymphatics. […] To evaluate the impact of fasting on drug absorption and distribution, we modified our protocol to include an overnight fast. This mouse PK experiment was performed as above, with the final time point extended to 24 h (instead of 18) for logistical considerations.
In accordance with the American Chemical Society Guidelines to Publication of Chemical Research, we affirm the use of standard ethical practices when housing and handling research animals, as ensured by the Emory University’s Institutional Animal Care and Use Committee (IACUC) and the Division of Animal Resources (DAR) through a rigorous protocol review, amendment, and approval process. During in vivo experiments, mice were housed in compliance with Emory University’s Division of Animal Resources (DAR) guidelines. For fasting experiments, food was removed the evening before the experiment. Mice had access to water throughout the fasting period. Food was reintroduced 4 h after oral dosing per industry standard protocols. Animals were monitored daily for signs of pain, distress, or adverse events. All procedures were conducted following protocols approved by the Institutional Animal Care and Use Committee (IACUC).
The compounds TXL, 15a, 15b, 21a, 21b, and a vehicle control were prepared at a concentration of 1 mg/mL in a 90:10 solution of olive oil (Sigma-Aldrich, cat. No. O1514) and 190-proof ethanol. The dosing for each mouse was calculated based on individual body weights to achieve a final dose of 10 mg/kg. For example, a 20 g mouse would receive 200 μL of the 1 mg/mL drug formulation, while a 25 g mouse would receive 250 μL.
In accordance with the American Chemical Society Guidelines to Publication of Chemical Research, we affirm the use of standard ethical practices when housing and handling research animals, as ensured by the Emory University’s Institutional Animal Care and Use Committee (IACUC) and the Division of Animal Resources (DAR) through a rigorous protocol review, amendment, and approval process. A total of 220 C57BL6/J male mice (aged 11–12 weeks, weight, 22–30 g) were used for these studies. Each mouse was weighed, recorded, and ear-clipped for identification. The dosing for each mouse was calculated based on individual body weights to achieve a final dose of 10 mg/kg. Animals were anesthetized using isoflurane gas before receiving a single dose of drug prepared as described above using a 22-gauge gavage needle attached to a calibrated syringe.
Time points for tissue collection were 1, 2, 4, 8, and 18 h for unfasted mice, and 1, 2, 4, 8, and 24 h for fasted mice. At each time point, the mice (n = 4 per compound per time point) were anesthetized using isoflurane and subjected to cardiac puncture for blood collection into EDTA-coated tubes. The collected blood samples were immediately placed on ice before the mice were humanely euthanized via cervical dislocation. Brain, liver, lungs, and kidneys were harvested, rinsed in PBS, and placed in prelabeled tubes. Tissues were flash-frozen in liquid nitrogen then transferred to dry ice for storage.
Tissues were weighed (∼50 mg) into homogenization tubes and ACN containing a 10 μM ITSD was added to achieve a final solvent-to-tissue ratio of 4:1. Homogenization beads were added, and the tissues were processed (Biotage Lysera, part no. 19–060) using two 20 s pulses with a 10 s interval period. Homogenate was centrifuged at maximum speed for 1 h, supernatant collected and analyzed via LC-MS using the method described previously. For plasma samples, a 50 μL aliquot was added 200 μL of ACN containing ITSD. […]

[2] = Release of parent TFV in mouse tissues after oral prodrug (fed state); conditions: 10 mg/kg oral prodrug
Description: To further evaluate the in vivo performance of 21a, we measured the release of the parent drug, TFV, in plasma (Figure a), liver (Figure b), and lung tissues collected from our PK study (fed state), and compared these levels (Figure c) with TXL.
Concentration–time profiles of parent TFV in (a) plasma and (b) liver of mice treated with either TXL or 21a (n = 3 biological replicates). (c) Summary of key TFV plasma and liver PK parameters following oral dose of TXL or 21a. Data represent the mean ± SEM.

Compound	IC50 (HIV) [nM]	Fasted:Fed PK Ratio, liver AUC ([1]; 10 mg/kg oral)	Fasted:Fed PK Ratio, liver Cmax ([1]; 10 mg/kg oral)	Fasted:Fed PK Ratio, lung AUC ([1]; 10 mg/kg oral)	Fasted:Fed PK Ratio, lung Cmax ([1]; 10 mg/kg oral)	Fasted:Fed PK Ratio, plasma AUC ([1]; 10 mg/kg oral)	Fasted:Fed PK Ratio, plasma Cmax ([1]; 10 mg/kg oral)	decrease in lung concentration under fasted conditions ([1]; 10 mg/kg oral) [%]	Tmax [1] [h]	lung AUC, fasted ([1]; 10 mg/kg oral)	increase in lung AUC in fasted versus fed mice ([1]; 10 mg/kg oral) [fold]	TFV levels (Cmax and AUC) in plasma and liver relative to 21a-treated mice [2]
C[C@H](Cn1cnc2c(N)ncnc21)OCP(=O)(O)OCCCOCCCCCCCCCCCCCCCC(F)(F)F [15a, Ammonium[(1R)-2-(6-aminopurin-9-yl)-1-methyl-ethoxy]methyl-[3-(16,16,16-trifluorohexadecoxy)propoxy]phosphinate]	50											
C[C@H](Cn1cnc2c(N)ncnc21)OCP(=O)(O)OC[C@H](COCCCCCCCCCCCCCCCC(F)(F)F)OCc1ccccc1 [21a, Ammonium[(1R)-2-(6-Aminopurin-9-yl)-1-methyl-ethoxy]methyl-[(2S)-2-benzyloxy-3-(16,16,16-trifluorohexadecoxy)propoxy]phosphinate]		0.76	1.6	0.83	0.69	2.4	0.72	17	1	59,900 h·ng/g		
CCCCCCCCCCCCCCCCOCCCOP(=O)(O)CO[C@H](C)Cn1cnc2c(N)ncnc21 [TXL, hexadecyloxypropyl (HDP)-TFV, reference compound]		0.64	1.5	2.1	2.2	1.9	1.4		4	15,600 h·ng/g	2	higher levels of TFV
